Results as given in article PMC10300102, “In vivo inhibition of nuclear ACE2 translocation protects against SARS-CoV-2 replication and lung damage through epigenetic imprinting” (Nature Communications, 2023).
Where a SMILES comes first, the peptide text is derived from it. The star is where a group is joined. Myristoyl = CCCCCCCCCCCCCC(=O)*

Tested on: SARS-CoV-2 ORF1ab and host gene expression
Conditions: hamster, in vivo

CCCCCCCCCCCCCC(=O)N[C@H](C(=O)NCC(=O)N[C@H](C(=O)N[C@@H](CCCNC(=N)N)C(=O)N[C@@H](CC(=O)O)C(=O)N[C@@H](CCCNC(=N)N)C(=O)N[C@@H](CCCCN)C(=O)N[C@@H](CCCCN)C(=O)N[C@@H](CCCCN)C(=O)N[C@@H](CC(N)=O)C(=O)N[C@@H](CCCCN)C(=O)N[C@@H](C)C(=O)N[C@@H](CCCNC(=N)N)C(=O)N[C@@H](CO)C(=O)O)[C@@H](C)CC)[C@@H](C)O [NACE2i] (Myristoyl-TGIRDRKKKNKARS-OH)
FC gene Cyp4v3: 0.2095
FC gene ORF1ab: -2.2037
FC gene S: -2.258
FC, gene 2410004B18Rik: 0.5678
FC, gene 4932438A13Rik: 0.5459
FC, gene Acat3: -0.674
FC, gene Acly: -0.5062
FC, gene Adnp2: 0.5468
FC, gene Aen: 0.6316
FC, gene Aff4: 0.6064
FC, gene Ahcy: -0.9648
FC, gene Akap13: 0.5493
FC, gene Ankrd17: 0.6698
FC, gene Ap1s1: -0.5707
FC, gene Ap3d1: 0.5083
FC, gene Aplnr: 0.5871
FC, gene Arhgap23: 0.8043
FC, gene Asph: -0.5094
FC, gene Atf1: 0.5582
FC, gene Bbs4: 0.6922
FC, gene Bnip1: 0.513
FC, gene Btn1a1: 0.5761
FC, gene C2: 2.567
FC, gene Ccdc115: -0.5047
FC, gene Ccr7: 0.5204
FC, gene Cdk4: -0.5201
FC, gene Chd8: 1.187
FC, gene Chpt1: -0.6745
FC, gene Ciao2a: -0.5045
FC, gene Clcn7: 0.7305
FC, gene Cldn10: -0.6712
FC, gene Clec2j: -0.5841
FC, gene Cuedc1: -0.5402
FC, gene Cyp4a32: 0.9236
FC, gene Cyth4: 0.5449
FC, gene D8Ertd738e: -0.5566
FC, gene Dcps: 0.5089
FC, gene Ddx3x: 0.6643
FC, gene Ddx17: -0.6263
FC, gene Ddx50: 0.5809
FC, gene Dnajb1: 1.307
FC, gene Dnajb4: 0.8217
FC, gene Dusp6: 0.7087
FC, gene Dusp8: 0.9914
FC, gene Edem2: -0.5407
FC, gene Efcab6: -0.6582
FC, gene Efhc2: 0.6406
FC, gene Efl1: 0.5009
FC, gene Egr2: 1.468
FC, gene Epb41l2: 0.503
FC, gene Epb41l4b: -0.6555
FC, gene Epc1: 0.5651
FC, gene Erfl: 0.7342
FC, gene Fam210b: -0.5004
FC, gene Fbxo34: 0.5562
FC, gene Fer1l4: 0.5763
FC, gene Fgfr2: -0.6329
FC, gene Fnip1: 1.067
FC, gene Foxa1: -0.5875
FC, gene Foxo4: -0.5985
FC, gene Foxp1: 0.7638
FC, gene Frk: -0.5985
FC, gene Fscn1: 0.6051
FC, gene Gadd45gip1: -0.6021
FC, gene Galnt16: 0.5879
FC, gene Gcdh: -0.6082
FC, gene Get3: -0.5368
FC, gene Gm6760: -0.5229
FC, gene Gm19935: 0.6161
FC, gene Gm36327: 0.5888
FC, gene Gpr108: -0.6108
FC, gene Grcc10: -0.632
FC, gene Gstm5: -0.5595
FC, gene Hbs1l: 0.5826
FC, gene Hcfc2: 0.539
FC, gene Hddc3: -0.6233
FC, gene Hes1: 0.7365
FC, gene Hes7: 0.6772
FC, gene Hnrnph3: 0.5781
FC, gene Hspa1a: 3.192
FC, gene Hspb8: 0.5876
FC, gene Ints1: -0.5112
FC, gene Ints6: 0.5796
FC, gene Irgm2: 0.8053
FC, gene Itm2c: -0.5859
FC, gene Josd2: -0.5145
FC, gene Kcnb2: 0.5599
FC, gene Kdm2b: 0.8792
FC, gene Klf2: 0.591
FC, gene Klf6: 1.611
FC, gene Krcc1: -0.5435
FC, gene Ldhb: 0.9545
FC, gene Lrch4: 0.6982
FC, gene Mat2b: -0.5576
FC, gene Mcl1: 0.7457
FC, gene Mff: -0.5195
FC, gene Mpnd: -0.5935
FC, gene Mrgprb13: 0.5244
FC, gene Mrpl18: -0.5015
FC, gene Msantd1: 0.7207
FC, gene Myo6: -0.795
FC, gene Myoz2: -0.6449
FC, gene Ndufc2: -0.5355
FC, gene Nfat5: 0.6106
FC, gene Nfyc: 0.5405
FC, gene Nlrp9c: 0.6509
FC, gene Nr1d1: 0.7307
FC, gene Nr6a1: 0.5193
FC, gene Nrg1: 1.2298
FC, gene ORF1ab_REV: 1.502
FC, gene Olfr229: 0.6277
FC, gene Olfr648: 0.5798
FC, gene Olfr992: 0.5742
FC, gene Olfr1246: 0.5289
FC, gene Oser1: 0.5067
FC, gene Papss2: 0.7496
FC, gene Parp4: 0.5117
FC, gene Paxx: 0.5674
FC, gene Pcdh10: 0.5344
FC, gene Pcf11: 0.7986
FC, gene Pga5: 0.5011
FC, gene Pias3: -0.5192
FC, gene Pigb: 0.6695
FC, gene Pllp: -0.5323
FC, gene Ppargc1a: 2.4524
FC, gene Ppil3: 0.791
FC, gene Ppp1r10: 1.995
FC, gene Ppp2r1a: -0.5051
FC, gene Prpsap1: -0.5066
FC, gene Ptprf: -0.5908
FC, gene Pum1: 0.5225
FC, gene Rac3: -0.6773
FC, gene Ranbp3: 0.6534
FC, gene Rapgef6: 0.5765
FC, gene Rasgrp2: 0.6502
FC, gene Rbm39: 0.6181
FC, gene Rel: 0.5472
FC, gene Rnd1: 2.009
FC, gene Rora: 0.5709
FC, gene Rps6ka4: -0.6146
FC, gene Rsad1: 0.5304
FC, gene Rtf2: 0.5373
FC, gene Rusf1: -0.6909
FC, gene S: 7.077
FC, gene Samd11: 0.6285
FC, gene Sdf4: 0.5035
FC, gene Sema4f: 1.3449
FC, gene Serhl: 1.282
FC, gene Serpinb9f: 0.5421
FC, gene Serpinf1: 0.5919
FC, gene Sfpq: 0.8832
FC, gene Sftpd: -0.8403
FC, gene Skil: 0.9649
FC, gene Slc8a2: 0.6877
FC, gene Slc25a1: -0.8686
FC, gene Slc25a45: 1.7301
FC, gene Snrnp70: -0.5232
FC, gene Socs2: 1.6268
FC, gene Sqle: -0.5283
FC, gene St7: 0.6724
FC, gene Stc1: -0.7739
FC, gene Sult1a1: -0.5479
FC, gene Tcp11l2: -0.5998
FC, gene Tecr: -0.5713
FC, gene Tmbim6: -0.5766
FC, gene Tmem35b: 1.27
FC, gene Tnfrsf12a: 0.714
FC, gene Tpgs1: -0.5572
FC, gene Tra2b: 1.01
FC, gene Tspan12: -0.8782
FC, gene Ttll8: -0.5897
FC, gene Twist1: 0.5929
FC, gene Urah: -0.7905
FC, gene Vpreb1: 0.5028
FC, gene Vtcn1: -0.6235
FC, gene Xpo4: 0.7242
FC, gene Ybey: 0.5779
FC, gene Ypel3: -0.854
FC, gene Zbtb10: 0.9542
FC, gene Zdhhc18: 0.5354
FC, gene Zfp68: 0.8041
NEC, Autophagy: -1.884
NEC, Biological oxidations: -2.307
NEC, COPI-mediated anterograde transport: -2.085
NEC, Cilium Assembly: -1.905
NEC, ER to Golgi Anterograde Transport: -1.892
NEC, Macroautophagy: -1.884
NEC, Organelle biogenesis and maintenance: -2.083
NEC, The citric acid (TCA) cycle and respiratory electron transport: -2.083
expression of SARS-CoV-2 ORF1ab: significantly reduced
top 20 genes in the TLR4 pathway: downregulated
viral ORF1ab and S genes in alveoli: significantly downregulated
